# From patent US20100099561A1, “HETEROBICYCLIC ALKYLTHIO-BRIDGED ISOXAZOLINES” (E.I. DU PONT DE NEMOURS AND COMPANY, priority 2008, published 2010)
# Columns and labels:
# Format in all cases: in vivo
# [1] = tested on: barnyardgrass (Echinochloa crus-galli); test: Test A preemergence, barnyardgrass; conditions: 0 to 100 scale (0 no effect, 100 complete control)
# Method in brief: (§1)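 Seeds sown in loam soil–sand blend; test chemicals in non-phytotoxic solvent mixture with surfactant applied preemergence as directed soil spray, or postemergence to plants 2–10 cm tall at one- to two-leaf stage. Greenhouse, ~10 days; visual injury rated against untreated controls, 0 (no effect) to 100 (complete control).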
# [2] = tested on: large crabgrass (Digitaria sanguinalis); test: Test A preemergence, large crabgrass; conditions: 0 to 100 scale (0 no effect, 100 complete control)
# Method in brief: as §1
# [3] = tested on: giant foxtail (Setaria faberi); test: Test A preemergence, giant foxtail; conditions: 0 to 100 scale (0 no effect, 100 complete control)
# Method in brief: as §1
# [4] = tested on: morningglory (Ipomoea spp.); test: Test A preemergence, morningglory; conditions: 0 to 100 scale (0 no effect, 100 complete control)
# Method in brief: as §1
# [5] = tested on: pigweed (Amaranthus retroflexus); test: Test A preemergence, pigweed; conditions: 0 to 100 scale (0 no effect, 100 complete control)
# Method in brief: as §1
# [6] = tested on: velvetleaf (Abutilon theophrasti); test: Test A preemergence, velvetleaf; conditions: 0 to 100 scale (0 no effect, 100 complete control)
# Method in brief: as §1
# [7] = tested on: wheat (Triticum aestivum); test: Test A preemergence, wheat; conditions: 0 to 100 scale (0 no effect, 100 complete control)
# Method in brief: as §1
# [8] = tested on: corn (Zea mays); test: Test A preemergence, corn; conditions: 0 to 100 scale (0 no effect, 100 complete control)
# Method in brief: as §1
# [9] = tested on: barnyardgrass (Echinochloa crus-galli); test: Test A postemergence, barnyardgrass; conditions: 0 to 100 scale (0 no effect, 100 complete control)
# Method in brief: as §1
# [10] = tested on: large crabgrass (Digitaria sanguinalis); test: Test A postemergence, large crabgrass; conditions: 0 to 100 scale (0 no effect, 100 complete control)
# Method in brief: as §1
# [11] = tested on: giant foxtail (Setaria faberi); test: Test A postemergence, giant foxtail; conditions: 0 to 100 scale (0 no effect, 100 complete control)
# Method in brief: as §1
# [12] = tested on: morningglory (Ipomoea spp.); test: Test A postemergence, morningglory; conditions: 0 to 100 scale (0 no effect, 100 complete control)
# Method in brief: as §1
# [13] = tested on: pigweed (Amaranthus retroflexus); test: Test A postemergence, pigweed; conditions: 0 to 100 scale (0 no effect, 100 complete control)
# Method in brief: as §1
# [14] = tested on: velvetleaf (Abutilon theophrasti); test: Test A postemergence, velvetleaf; conditions: 0 to 100 scale (0 no effect, 100 complete control)
# Method in brief: as §1
# [15] = tested on: wheat (Triticum aestivum); test: Test A postemergence, wheat; conditions: 0 to 100 scale (0 no effect, 100 complete control)
# Method in brief: as §1
# [16] = tested on: corn (Zea mays); test: Test A postemergence, corn; conditions: 0 to 100 scale (0 no effect, 100 complete control)
# Method in brief: as §1
# [17] = tested on: rice (Oryza sativa); test: Test B flooded paddy test, rice; conditions: Flood, scale 0 to 100
# Method in brief: (§2)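 Step one: raise plants to 2 leaves. Step two: flood pots 3 cm over the soil and apply compound into the water, keeping this depth. Step three: after 13–15 greenhouse days, score visually versus controls, 0–100, where 100 means complete control.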
# [18] = tested on: umbrella sedge (Cyperus difformis); test: Test B flooded paddy test, umbrella sedge; conditions: Flood, scale 0 to 100
# Method in brief: as §2
# [19] = tested on: ducksalad (Heteranthera limosa); test: Test B flooded paddy test, ducksalad; conditions: Flood, scale 0 to 100
# Method in brief: as §2
# [20] = tested on: barnyardgrass (Echinochloa crus-galli); test: Test B flooded paddy test, barnyardgrass; conditions: Flood
# Method in brief: as §2
# [21] = 250 g ai/ha, scale 0 to 100 (0 no effect, 100 complete control)
compound,measurement,setting,value
CC1(C)CC([S+]([O-])Cc2c(C(F)(F)C(F)(F)F)nc3n(c2=O)CCS3)=NO1 (centres unmarked) [Compound 41],"Plant response rating, Barnyardgrass",[1]; 125 g ai/ha,0
same,"Plant response rating, Barnyardgrass",[1]; 500 g ai/ha,60
same,"Plant response rating, Crabgrass, Large",[2]; 125 g ai/ha,0
same,"Plant response rating, Crabgrass, Large",[2]; 500 g ai/ha,80
same,"Plant response rating, Foxtail, Giant",[3]; 125 g ai/ha,0
same,"Plant response rating, Foxtail, Giant",[3]; 500 g ai/ha,80
same,"Plant response rating, Morningglory",[4]; 500 g ai/ha,0
same,"Plant response rating, Pigweed",[5]; 125 g ai/ha,0
same,"Plant response rating, Pigweed",[5]; 500 g ai/ha,0
same,"Plant response rating, Velvetleaf",[6]; 125 g ai/ha,0
same,"Plant response rating, Velvetleaf",[6]; 500 g ai/ha,0
same,"Plant response rating, Wheat",[7]; 125 g ai/ha,0
same,"Plant response rating, Wheat",[7]; 500 g ai/ha,0
same,"Plant response rating, Corn",[8]; 125 g ai/ha,0
same,"Plant response rating, Corn",[8]; 500 g ai/ha,0
same,"Plant response rating, Barnyardgrass",[9]; 125 g ai/ha,30
same,"Plant response rating, Barnyardgrass",[9]; 500 g ai/ha,70
same,"Plant response rating, Crabgrass, Large",[10]; 125 g ai/ha,0
same,"Plant response rating, Crabgrass, Large",[10]; 500 g ai/ha,50
same,"Plant response rating, Foxtail, Giant",[11]; 125 g ai/ha,10
same,"Plant response rating, Foxtail, Giant",[11]; 500 g ai/ha,60
same,"Plant response rating, Morningglory",[12]; 125 g ai/ha,0
same,"Plant response rating, Morningglory",[12]; 500 g ai/ha,10
same,"Plant response rating, Pigweed",[13]; 125 g ai/ha,0
same,"Plant response rating, Pigweed",[13]; 500 g ai/ha,0
same,"Plant response rating, Velvetleaf",[14]; 125 g ai/ha,0
same,"Plant response rating, Velvetleaf",[14]; 500 g ai/ha,0
same,"Plant response rating, Wheat",[15]; 125 g ai/ha,0
same,"Plant response rating, Wheat",[15]; 500 g ai/ha,40
same,"Plant response rating, Corn",[16]; 125 g ai/ha,0
same,"Plant response rating, Corn",[16]; 500 g ai/ha,40
same,"Plant response rating, Rice",[17]; 31 g ai/ha,0
same,"Plant response rating, Rice",[17]; 62 g ai/ha,0
same,"Plant response rating, Rice",[17]; 125 g ai/ha,0
same,"Plant response rating, Rice",[17]; 250 g ai/ha,0
same,"Plant response rating, Sedge, Umbrella",[18]; 31 g ai/ha,0
same,"Plant response rating, Sedge, Umbrella",[18]; 62 g ai/ha,0
same,"Plant response rating, Sedge, Umbrella",[18]; 125 g ai/ha,0
same,"Plant response rating, Sedge, Umbrella",[18]; 250 g ai/ha,0
same,"Plant response rating, Ducksalad",[19]; 31 g ai/ha,0
same,"Plant response rating, Ducksalad",[19]; 62 g ai/ha,0
same,"Plant response rating, Ducksalad",[19]; 125 g ai/ha,0
same,"Plant response rating, Ducksalad",[19]; 250 g ai/ha,0
same,"Plant response rating, Barnyardgrass","[20]; 31 g ai/ha, scale 0 to 100",0
same,"Plant response rating, Barnyardgrass","[20]; 62 g ai/ha, scale 0 to 100",0
same,"Plant response rating, Barnyardgrass","[20]; 125 g ai/ha, scale 0 to 100",0
same,"Plant response rating, Barnyardgrass",[20]; [21],0
CC1(C)CC(S(=O)(=O)Cc2c(C(F)(F)F)nc3ccon3c2=O)=NO1 [Compound 42],"Plant response rating, Barnyardgrass",[1]; 125 g ai/ha,30
same,"Plant response rating, Barnyardgrass",[1]; 500 g ai/ha,80
same,"Plant response rating, Crabgrass, Large",[2]; 125 g ai/ha,50
same,"Plant response rating, Crabgrass, Large",[2]; 500 g ai/ha,80
same,"Plant response rating, Foxtail, Giant",[3]; 125 g ai/ha,60
same,"Plant response rating, Foxtail, Giant",[3]; 500 g ai/ha,90
same,"Plant response rating, Morningglory",[4]; 125 g ai/ha,0
same,"Plant response rating, Morningglory",[4]; 500 g ai/ha,0
same,"Plant response rating, Pigweed",[5]; 125 g ai/ha,0
same,"Plant response rating, Pigweed",[5]; 500 g ai/ha,30
same,"Plant response rating, Velvetleaf",[6]; 125 g ai/ha,0
same,"Plant response rating, Velvetleaf",[6]; 500 g ai/ha,0
same,"Plant response rating, Wheat",[7]; 125 g ai/ha,0
same,"Plant response rating, Wheat",[7]; 500 g ai/ha,0
same,"Plant response rating, Corn",[8]; 125 g ai/ha,0
same,"Plant response rating, Corn",[8]; 500 g ai/ha,0
same,"Plant response rating, Barnyardgrass",[9]; 125 g ai/ha,70
same,"Plant response rating, Barnyardgrass",[9]; 500 g ai/ha,80
same,"Plant response rating, Crabgrass, Large",[10]; 125 g ai/ha,50
same,"Plant response rating, Crabgrass, Large",[10]; 500 g ai/ha,70
same,"Plant response rating, Foxtail, Giant",[11]; 125 g ai/ha,60
same,"Plant response rating, Foxtail, Giant",[11]; 500 g ai/ha,80
same,"Plant response rating, Morningglory",[12]; 125 g ai/ha,0
same,"Plant response rating, Morningglory",[12]; 500 g ai/ha,0
same,"Plant response rating, Pigweed",[13]; 125 g ai/ha,0
same,"Plant response rating, Pigweed",[13]; 500 g ai/ha,10
same,"Plant response rating, Velvetleaf",[14]; 125 g ai/ha,0
same,"Plant response rating, Velvetleaf",[14]; 500 g ai/ha,0
same,"Plant response rating, Wheat",[15]; 125 g ai/ha,0
same,"Plant response rating, Wheat",[15]; 500 g ai/ha,20
same,"Plant response rating, Corn",[16]; 125 g ai/ha,0
same,"Plant response rating, Corn",[16]; 500 g ai/ha,0
same,"Plant response rating, Rice",[17]; 31 g ai/ha,0
same,"Plant response rating, Rice",[17]; 62 g ai/ha,0
same,"Plant response rating, Rice",[17]; 125 g ai/ha,0
same,"Plant response rating, Rice",[17]; 250 g ai/ha,0
same,"Plant response rating, Sedge, Umbrella",[18]; 31 g ai/ha,0
same,"Plant response rating, Sedge, Umbrella",[18]; 62 g ai/ha,0
same,"Plant response rating, Sedge, Umbrella",[18]; 125 g ai/ha,0
same,"Plant response rating, Sedge, Umbrella",[18]; 250 g ai/ha,0
same,"Plant response rating, Ducksalad",[19]; 31 g ai/ha,0
same,"Plant response rating, Ducksalad",[19]; 62 g ai/ha,0
same,"Plant response rating, Ducksalad",[19]; 125 g ai/ha,0
same,"Plant response rating, Ducksalad",[19]; 250 g ai/ha,0
same,"Plant response rating, Barnyardgrass","[20]; 31 g ai/ha, scale 0 to 100",0
same,"Plant response rating, Barnyardgrass","[20]; 62 g ai/ha, scale 0 to 100",0
same,"Plant response rating, Barnyardgrass","[20]; 125 g ai/ha, scale 0 to 100",0
same,"Plant response rating, Barnyardgrass",[20]; [21],0
